This note sets out measurements from ChEMBL document CHEMBL5257079, “Discovery of FXR/PPARγ dual partial agonist” (Bioorg Med Chem, 2023).

pEC50, pIC50: −log10 of the molar value.

In data set [1] the target is T1, Bile acid receptor (Homo sapiens, UniProt Q96RI1).
T1 sequence (Q96RI1 whole entry): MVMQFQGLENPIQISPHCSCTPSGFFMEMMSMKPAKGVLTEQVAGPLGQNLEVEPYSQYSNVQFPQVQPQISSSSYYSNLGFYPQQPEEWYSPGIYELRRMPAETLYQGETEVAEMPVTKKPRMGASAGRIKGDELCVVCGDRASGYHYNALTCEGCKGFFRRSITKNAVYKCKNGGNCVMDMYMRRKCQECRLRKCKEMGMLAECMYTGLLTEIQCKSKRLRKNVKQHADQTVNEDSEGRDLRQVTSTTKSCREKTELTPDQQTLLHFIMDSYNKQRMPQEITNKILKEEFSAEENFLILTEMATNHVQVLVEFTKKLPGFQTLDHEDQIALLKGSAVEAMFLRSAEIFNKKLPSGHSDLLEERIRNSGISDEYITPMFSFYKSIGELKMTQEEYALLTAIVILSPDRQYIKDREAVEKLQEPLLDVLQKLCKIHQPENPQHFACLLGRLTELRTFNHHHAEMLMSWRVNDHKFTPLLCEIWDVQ
Put plainly: Partial agonist activity at FXR-LBD-GST (unknown origin) by TR-FRET assay. To be noted: for pEC50: read-out: EC50.

Data set [2] can be described thus: Metabolic stability in mouse liver microsomes assessed as half life. In kind it is ADME, Microsome.
The nature of data set [3]: Metabolic stability in mouse liver microsomes assessed as parent compound remaining after 30 mins. In kind it is ADME, Microsome. To be noted: read-out: Stability.
In data set [4] the target is T1, Bile acid receptor. As to the kind of experiment: Partial agonist activity at human FXR expressed in Huh-7 cells in presence of CDCA by luciferase reporter gene assay. In kind it is cell-based.
Data set [5] concerns the target T2, Bile acid receptor (Homo sapiens) (UniProt Q96RI1).
T2 sequence (whole entry): T1 sequence (Q96RI1 whole entry)
As to the kind of experiment: Partial agonist activity at human FXR expressed in Huh-7 cells in presence of CDCA by luciferase reporter gene assay relative to GW4064. In kind it is cell-based.

The target of data set [6] is T1, Bile acid receptor. Put plainly: Antagonist activity at FXR-LBD-GST (unknown origin) in presence of GW4064.

Regarding `CC(C)(C)c1ccc(Cn2cnc3ccc(C(=O)Nc4ccc(C(=O)O)cc4)cc32)cc1`, the EC50 entry on Bile acid receptor [1] is listed as “Not Active”.
Turning to `CC(C)(C)c1ccc(Cn2cnc3c(-c4ccc(C(=O)O)cc4)cccc32)cc1`, the negative-log EC50 (pEC50) on Bile acid receptor [1] is 6.85.
Regarding `CC(C)(C)c1ccc(C(=O)Nc2cccc3c2ncn3-c2ccc(C(=O)O)cc2)cc1`, on Bile acid receptor [1], the EC50 entry was “Not Active”.
The same measure, in the same setting: then `CC(C)(C)c1ccc(NC(=O)c2ccc3ncn(Cc4ccc(C(=O)O)cc4)c3c2)cc1`, with “Not Active”.
The same measure, in the same setting: then `CC(C)(C)c1ccc(Cn2c(-c3ccc(C(=O)O)cc3)nc3ccccc32)cc1`, with “Not Active”; and `CC(C)(C)c1ccc(Cn2cnc3cc(C(=O)Nc4ccc(C(=O)O)cc4)ccc32)cc1`, with “Not Active”.
Regarding `CC(C)(C)c1ccc(-n2cnc3c(NC(=O)c4ccc(C(=O)O)cc4)cccc32)cc1`, the half-life in data set [2] worked out at 24.6 min. For the same molecule, the negative logarithm of the EC50 (pEC50) at Bile acid receptor [1] was 6.31. In addition, the remaining at 0.5 h in data set [3] was 37.9%.
`CC(C)(C)c1ccc(-c2cccc3c2ncn3-c2ccc(C(=O)O)cc2)cc1`: the EC50 result at Bile acid receptor [1] was “Not Active”.
For `CC(C)(C)c1ccc(Cn2cnc3c(NC(=O)Cc4ccc(C(=O)O)cc4)cccc32)cc1`, the pEC50 on Bile acid receptor [1] was 6.39.
`CC(C)(C)c1ccc(NC(=O)c2ccc3c(c2)ncn3Cc2ccc(C(=O)O)cc2)cc1`: the EC50 entry on Bile acid receptor [1] is “Not Active”.
Still for that read-out and setting: as for `CC(C)(C)c1ccc(-c2nc3ccccc3n2Cc2ccc(C(=O)O)cc2)cc1`, the entry is “Not Active”.
Regarding `CC(C)(C)c1ccc(Cn2cnc3c(NC(=O)c4ccc(C(=O)O)cc4)cccc32)cc1`, the figures for the pEC50 on Bile acid receptor [4] and on Bile acid receptor [1] were 5.66 and 6.85, respectively. In data set [5], the Activity was 6%.
For `CC(C)(C)c1ccc(C(=O)Nc2cccc3c2ncn3Cc2ccc(C(=O)O)cc2)cc1`, the EC50 entry on Bile acid receptor [1] is “Not Active”.
With `CC(C)(C)c1ccc(-n2cnc3c(-c4ccc(C(=O)O)cc4)cccc32)cc1`, in data set [2], the half-life amounted to 25 min. Besides, the negative-log EC50 (pEC50) at Bile acid receptor [1] was 6.29. The pIC50 on Bile acid receptor [6] was 5.00. Further, in data set [3], the remaining at 0.5 h is 36.9%.
On to `CC(C)(C)c1ccc(-c2cccc3c2ncn3Cc2ccc(C(=O)O)cc2)cc1`, for which, at Bile acid receptor [1], the pEC50 was 6.12.
